Assay results reported in patent publication EP0904128B1, “COMPOSITION AND SYSTEM FOR IONTOPHORETIC TRANSDERMAL DELIVERY OF DRUGS” (priority 1996, dated 1997).
Where two headings read alike, the source gives them in different places.

Key:
[1] = experiment 3; for salicylate release / permeation through epidermis: epidermis between fiber disc and phosphate buffer pH 7.4 (6 mM, µ=0.2), zero-order after lag time
Method: Drug release in vitro from the fiber discs at 37 °C was tested in Franz diffusion cells (Crown Glass Co. Inc., Somerville, NJ) (Fig. 3). […] The fiber discs 10 were placed in the diffusion cells so that one side of the anionic ion-exchange fiber was exposed to the dissolution medium. The dissolution medium was pH 7.4 phosphate buffer saline (PBS, 143 mM, µ=0.15 (µ = ionic strength)) in experiment 1 and pH 7.4 phosphate buffer (6 mM, µ=0.2) in experiments 2 and 3. To assess the effect of the skin on drug release (experiment 3), a piece of epidermis 13 was placed between the fiber disc and buffer solution. At fixed times, samples of 250 µl were withdrawn and the drug concentration in the samples were determined by using HPLC (Beckman System Gold, Beckman Instrument, San Ramon, CA) with a Supelcosil LC-18-DB column (5 µm, 150 x 4.6 mm) (Supelco Inc., Rohm and Haab Co., Bellefonte, PA). The mobile phase was a binary mixture of methanol (40 % v/v) and pH 7.0 phosphate buffer (60 %). The detection wavelenght was 298 nm, and the flow rate of 1.0 ml/min, the retention time was 2.6 min.

[2] = pH 7.0 phosphate buffer (200 mM) containing 6.27 g/l NaCl; donor solution 50 µg/ml; Hirvonen 1994; cited from earlier work
[3] = for Tacrine permeation Flux: Average ± standard deviation
[4] = in vivo; cited from earlier work
[5] = human, pH 7.4
Method: Electrodes for iontophoresis were prepared from silver wire and silver chloride (Aldrich-Chemie, Steinheim, Germany). Direct current (0,5 mA/cm^2) during iontophoresis was delivered by HP 6181C DC current source (Hewlett-Packard, Cupertino, CA) from the electrodes to the diffusion chambers via salt bridges. Salt bridges were prepared by injecting 1 M NaCl-gel (3 % agar) inside plastic tubing (diameter 4 mm, length ca. 15 cm). […] Transdermal permeation of ions increase most during iontophoresis due to electrostatic repulsion. […] Because Ag/AgCl-electrodes cause precipitation of phosphates, we used HEPES-buffer at pH 7,4 during the iontophoresis experiments. […] The chambers were connected in series as constant DC-current was used.

| SMILES | salicylate release / permeation through epidermis [1] | salicylate release / permeation through epidermis ([1]; listed as Salicylate) | Lag time before steady state release ([1]; with skin) | in vitro permeability of anionic salicylate through skin [2] | Tacrine permeation Flux ([3]; Passive permeation (3.5 % in ion-exchange fiber)) | Tacrine permeation Flux ([3]; Passive permeation (5 % solution)) | Lag-time of permeation ([3]; human, 5 %, pH 7) | Delivery of tacrine across the skin from the cationic ion-exchange fiber ([3]; passive, 3,5 % tacrine in cationic ion-exchange fiber) | Steady-state flux of tacrine across human skin in vitro ([3]; passive, 5 % solution, pH 7,4) | Clearance CL [4] | elimination half-life T1/2 [4] | peroral bioavailability [4] | iontophoretic delivery compared to passive permeation from the ion-exchange fiber ([5]; 3.5 %) | lag-time of drug permeation ([5]; 5 %) |
| --- | --- | --- | --- | --- | --- | --- | --- | --- | --- | --- | --- | --- | --- | --- |
| O=C([O-])c1ccccc1O.[Na+] [salicylate, Sodium salicylate] | about 0.08 µg/h | 0.08 µg/h | about 2 h | about 0.34 µg/cm^2/h |  |  |  |  |  |  |  |  |  |  |
| Nc1c2c(nc3ccccc13)CCCC2 [tacrine, 9-amino-1,2,3,4-tetrahydroacridine] |  |  |  |  | 0.003±0.0006 µg/ h per cm^2 | 2.95±0.66 µg/ h per cm^2 | ca. 24 h | about 0,003 g/h per cm^2 | 2,95 g/h per cm^2 | about 150 l/h | 1,4 - 3,6 h | 5 - 35% | > 10 000 -fold | about 0,5 h |
